Measured values taken from the supplement of paper PMC10307832.

How the values were obtained:
Experiment in all cases: relative viability (nuclei count vs DMSO), 5 days (fraction); higher = more cells survive
Neratinib + Alpelisib = compound: CCOc1cc2ncc(C#N)c(Nc3ccc(OCc4ccccn4)c(Cl)c3)c2cc1NC(=O)/C=C/CN(C)C [Neratinib] + Cc1nc(NC(=O)N2CCC[C@H]2C(N)=O)sc1-c1ccnc(C(C)(C)C(F)(F)F)c1 [Alpelisib] (partner 2 µM)
Method in brief: (§1)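 One day after seeding in 1536-well plates, lung cancer cell lines were dosed by pin tool. Dosing was either single-drug or a fixed anchor-drug dose plus five library-drug doses (not always all listed) in √10 steps. After 5 days, nuclei were stained in one fix-and-stain step and counted on 4× images, and relative viability is the nuclei count of treated wells over that of vehicle wells, given as the median of duplicate plates.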

Neratinib + Bortezomib = compound: CCOc1cc2ncc(C#N)c(Nc3ccc(OCc4ccccn4)c(Cl)c3)c2cc1NC(=O)/C=C/CN(C)C [Neratinib] + CC(C)C[C@H](NC(=O)[C@H](Cc1ccccc1)NC(=O)c1cnccn1)B(O)O [Bortezomib] (partner 0.002 µM)
Method in brief: as §1

Neratinib + Olaparib = compound: CCOc1cc2ncc(C#N)c(Nc3ccc(OCc4ccccn4)c(Cl)c3)c2cc1NC(=O)/C=C/CN(C)C [Neratinib] + O=C(c1cc(Cc2n[nH]c(=O)c3ccccc23)ccc1F)N1CCN(C(=O)C2CC2)CC1 [Olaparib] (partner 8 µM)
Method in brief: as §1

Neratinib + Pemetrexed = compound: CCOc1cc2ncc(C#N)c(Nc3ccc(OCc4ccccn4)c(Cl)c3)c2cc1NC(=O)/C=C/CN(C)C [Neratinib] + Nc1nc2[nH]cc(CCc3ccc(C(=O)N[C@@H](CCC(=O)O)C(=O)O)cc3)c2c(=O)[nH]1 [Pemetrexed] (partner 0.2 µM)
Method in brief: as §1

Cell Line | relative viability (Neratinib + Alpelisib; first compound 0.01 µM) | relative viability (Neratinib + Alpelisib; first compound 0.03162 µM) | relative viability (Neratinib + Alpelisib; first compound 0.1 µM) | relative viability (Neratinib + Alpelisib; first compound 0.3162 µM) | relative viability (Neratinib + Alpelisib; first compound 1 µM) | relative viability (Neratinib + Bortezomib; first compound 0.01 µM) | relative viability (Neratinib + Bortezomib; first compound 0.03162 µM) | relative viability (Neratinib + Bortezomib; first compound 0.1 µM) | relative viability (Neratinib + Bortezomib; first compound 0.3162 µM) | relative viability (Neratinib + Bortezomib; first compound 1 µM) | relative viability (Neratinib + Olaparib; first compound 0.01 µM) | relative viability (Neratinib + Olaparib; first compound 0.03162 µM) | relative viability (Neratinib + Olaparib; first compound 0.1 µM) | relative viability (Neratinib + Olaparib; first compound 1 µM) | relative viability (Neratinib + Pemetrexed; first compound 0.01 µM) | relative viability (Neratinib + Pemetrexed; first compound 0.03162 µM) | relative viability (Neratinib + Pemetrexed; first compound 0.1 µM) | relative viability (Neratinib + Pemetrexed; first compound 1 µM) | relative viability (Neratinib + Olaparib; first compound 0.3162 µM) | relative viability (Neratinib + Pemetrexed; first compound 0.3162 µM)
LCLC-97TM1 | 0.26 | 0.254 | 0.24 | 0.255 | 0.115 | 0.786 | 0.347 | 0.739 | 0.41 | 0.298 | 0.31 | 0.437 | 0.329 | 0.234 | 0.186 | 0.209 | 0.138 | 0.185 |  | 
LCLC-103H | 1 | 1 | 0.711 | 0.966 | 0.629 | 1.18 | 1.1 | 0.905 | 1.16 | 1.1 | 0.63 | 0.85 | 0.705 | 0.642 | 0.509 | 0.489 | 0.445 | 0.484 | 0.726 | 0.488
LOU-NH91 | 0.628 | 0.598 | 0.507 | 0.447 | 0.475 | 0.477 | 0.51 | 0.484 | 0.507 | 0.559 | 0.977 | 0.944 |  | 0.632 | 0.383 | 0.439 | 0.426 | 0.424 | 0.678 | 0.43
LU99A | 0.66 | 0.625 | 0.483 | 0.323 | 0.259 | 1.11 | 1.18 | 0.762 | 0.927 | 0.413 | 0.251 | 0.286 | 0.246 |  | 0.185 | 0.194 | 0.155 | 0.188 | 0.268 | 0.21
LXF-289 | 1.03 | 1.04 | 0.974 | 0.98 | 0.765 | 1.02 | 0.998 | 0.93 | 1.03 | 0.975 | 1.12 | 1.28 | 0.931 | 0.889 | 0.881 | 0.981 | 0.834 | 0.87 | 1.06 | 0.933
NCI-H23 | 0.832 | 0.716 | 0.653 | 0.686 | 0.329 | 0.964 | 1.31 | 1.07 | 1.13 | 0.821 | 0.283 | 0.284 | 0.317 | 0.314 | 0.702 | 0.641 | 0.619 | 0.499 | 0.328 | 0.664
NCI-H322M | 0.657 | 0.839 | 0.803 | 0.478 | 0.218 | 1.15 | 1.2 | 1.1 | 0.809 | 0.36 | 0.715 |  | 0.785 | 0.415 | 0.642 | 0.652 | 0.598 | 0.371 | 0.512 | 0.448
NCI-H441 | 0.972 | 0.906 |  | 0.504 | 0.254 | 0.661 | 0.381 | 0.372 | 0.54 | 0.265 | 0.57 | 0.438 | 0.488 | 0.417 | 0.256 | 0.266 | 0.261 | 0.248 | 0.48 | 0.278
NCI-H460 | 0.598 | 0.6 |  | 0.403 | 0.0801 | 1.22 | 1.36 |  | 1.27 | 0.587 | 0.428 | 0.43 | 0.383 | 0.419 | 0.062 | 0.0586 | 0.063 | 0.0813 | 0.415 | 0.0641
NCI-H520 | 0.955 | 1.14 | 0.905 | 0.819 | 0.547 | 0.468 | 0.788 | 0.448 | 0.426 | 0.31 | 0.303 | 0.321 |  | 0.194 | 0.631 | 0.735 |  |  | 0.349 | 0.505
NCI-H596 | 0.464 | 0.474 | 0.433 | 0.489 | 0.304 |  | 1.32 | 1.12 | 1.08 | 0.843 | 0.633 | 0.726 | 0.622 | 0.574 | 0.523 | 0.529 | 0.472 | 0.488 | 0.659 | 0.493
NCI-H647 | 1.17 | 1.13 | 0.958 | 0.862 | 0.614 |  | 0.914 | 0.586 | 0.558 | 0.664 | 0.426 | 0.518 | 0.4 | 0.263 | 0.187 | 0.174 | 0.19 | 0.134 | 0.294 | 0.156
NCI-H650 | 1.13 | 1.32 | 0.999 |  | 0.85 | 0.94 | 1.07 | 1.08 |  | 0.852 | 0.39 | 0.434 | 0.372 | 0.392 | 0.98 | 1.11 | 0.932 | 0.773 | 0.318 | 0.831
NCI-H661 | 0.66 | 0.959 | 0.443 | 0.187 | 0.236 | 0.779 | 0.697 | 0.675 | 0.446 | 0.24 | 0.838 | 0.743 | 0.555 | 0.534 | 0.951 | 0.947 | 0.595 | 0.537 | 0.605 | 0.704
NCI-H838 | 1.05 | 1.16 | 0.94 | 0.832 | 0.344 | 0.921 | 1.12 | 0.729 | 0.627 | 0.328 | 0.762 | 0.785 | 0.798 | 0.399 | 0.247 | 0.268 | 0.242 | 0.243 | 0.649 | 0.239
NCI-H1355 | 0.949 | 0.83 | 0.788 | 0.698 | 0.236 | 1.23 | 1.3 | 1.16 | 1.02 | 0.752 | 0.772 | 0.719 | 0.7 | 0.547 | 1.07 | 1.03 | 0.951 | 0.821 | 0.701 | 1.02
NCI-H1437 | 1.11 | 1.07 | 0.714 | 0.912 | 0.617 | 0.639 |  | 0.565 | 0.385 | 0.475 | 0.673 | 0.614 | 0.612 | 0.663 | 0.329 | 0.344 | 0.269 | 0.312 | 0.603 | 0.275
NCI-H1651 | 1.03 | 1 | 0.823 | 0.783 | 0.616 | 1.07 | 1.13 | 0.86 | 0.902 | 0.852 | 0.183 | 0.191 | 0.185 | 0.193 | 0.619 | 0.629 | 0.565 | 0.516 | 0.19 | 0.57
NCI-H1666 | 0.919 | 0.772 | 0.57 | 0.433 | 0.369 | 0.894 | 0.896 | 0.767 | 0.609 | 0.662 | 0.751 | 0.806 | 0.675 | 0.806 | 0.856 | 0.867 | 0.746 | 0.725 | 0.666 | 0.652
NCI-H1734 | 0.744 |  | 0.588 | 0.533 | 0.479 | 1.27 | 0.996 | 0.912 | 0.934 | 0.74 | 0.76 | 0.694 | 0.545 | 0.457 | 0.421 | 0.467 | 0.354 | 0.492 | 0.525 | 0.432
NCI-H1755 | 0.947 | 1.04 | 0.899 | 0.946 | 0.409 | 1.08 | 0.934 |  | 1.04 | 0.958 | 0.925 | 0.922 | 0.807 | 0.824 | 0.496 | 0.496 | 0.379 | 0.417 | 0.918 | 0.563
NCI-H1792 |  | 0.803 | 0.639 | 0.599 | 0.484 | 1.01 | 0.965 | 0.897 | 0.896 | 0.745 | 0.0369 | 0.65 | 0.376 | 0.174 | 0.826 | 1.16 | 0.716 | 0.538 | 0.257 | 0.812
NCI-H1915 | 1.12 | 1.13 | 1.04 | 0.99 | 0.829 | 1.06 | 1.03 | 0.952 | 0.874 | 0.962 | 0.232 |  | 0.221 | 0.252 | 0.495 | 0.495 | 0.44 | 0.516 | 0.245 | 0.412
NCI-H1975 | 0.85 | 0.738 | 0.546 | 0.153 | 0.192 | 0.36 | 0.428 | 0.423 | 0.252 | 0.191 | 0.917 | 0.96 | 0.644 | 0.18 | 0.295 | 0.336 | 0.284 | 0.178 | 0.43 | 0.25
NCI-H1993 | 0.624 | 0.666 | 0.717 | 0.687 | 0.664 |  | 1.11 | 0.763 | 0.646 |  | 1.33 | 1.06 | 0.996 |  | 0.398 | 0.543 | 0.533 | 0.486 | 0.704 | 0.564
NCI-H2009 | 1.14 | 1.16 | 1.11 | 1.17 | 0.955 | 0.998 | 1.08 | 0.856 | 0.825 |  | 0.691 | 0.752 | 0.65 | 0.732 | 1.09 |  | 1.06 | 1.01 | 0.689 | 1.06
NCI-H2023 | 0.62 | 0.611 | 0.511 | 0.445 | 0.298 | 1.08 | 1.08 | 0.802 | 0.995 | 0.69 | 0.448 | 0.415 | 0.365 | 0.386 | 0.251 | 0.221 | 0.21 | 0.212 | 0.42 | 0.221
NCI-H2085 | 1.02 |  | 0.778 | 0.7 | 0.549 | 1.05 |  | 0.869 | 1.06 | 0.76 | 0.755 | 0.8 | 0.729 | 0.639 | 0.962 | 0.987 | 0.754 | 0.71 | 0.644 | 0.655
